From patent publication US10077248B2, “Form of imazapyr, a process for its preparation and use the same” (priority 2015, dated 2018) come the findings set out here.

The format of this data set is physicochemical. As to the method:
Samples prepared in Examples 4, and 5 were stored at 54° C. for 1 month, 3 months and 6 months. The procedures are followed according to CIPAC MT 46.3. The concentration of imazapyr was tested at the end of each storage time by high pressure liquid chromatography (HPLC). The aggregation was measured by observation. The original concentration of imazapyr in each formulation was 25%.

For the molecule `CC(C)C1(C)N=C(c2ncccc2C(=O)O)NC1=O` (racemic) [imazapyr in amorphous state, 2-[(RS)-4-isopropyl-4-methyl-5-oxo-2-imidazolin-2-yl]nicotinic acid], the “storage stability / tendency of aggregation (in words)” value is recorded as “high tendency of aggregation after a long storage time”.
To `CC(C)C1(C)N=C(c2ncccc2C(=O)O)NC1=O` (racemic) [crystalline modification I of imazapyr, 2-[(RS)-4-isopropyl-4-methyl-5-oxo-2-imidazolin-2-yl]nicotinic acid] belongs “significant increase in its storage stability”.
